Measured values from PMC8333425, “Discovery of a dual Ras and ARF6 inhibitor from a GPCR endocytosis screen” (Nature Communications, 2021).
“And” between values parts separate entries of the source, which are not always exact repeats. Identical values can stand only once. “Also recorded” adds a separate entry of the source.

Experiments:
[1] = molecular target: T1, K-Ras-Y32A (Homo sapiens, UniProt P01116, Y32A); assay: In vitro mant-GTP exchange assay, purified K-Ras-Y32A with SOS1; type: biochemical; conditions: 50 μM
T1 construct: GST (N); FLAG (N); host or cells: E. coli BL21
Protocol: Ras activity was assessed in a 384-well black bottom plate using the mant-GTP exchange factor assay that measures the uptake of the fluorescent nucleotide analog N-methylanthraniloyl-GTP (mant-GTP) into GTPases. For Ras activation, 2X exchange buffer, 1.66 μg of purified pGEX-6P-1-H-Ras or pGEX-6P-1-K-Ras-WT or pGEX-6P-1-K-Ras-Y32A were added per well in presence of DMSO, different concentrations of Rasarfin (as indicated) or 50 µM of compounds 21.4, 21.7, or 21.8. Using the Infinite 200 Pro plate reader (Tecan) with filters set at 360 nm and 440 nm for detecting the excitation and emissions, respectively, and temperature set at 20 °C, 5 readings were recorded every 5 s before the addition of either H2O, 40 mM EDTA or 0.66 μg purified SOS1. The fluorescence of mant-GTP uptake was measured every 30 sec for 30 min and quantified as the delta relative fluorescence units (RFU), which was calculated as the RFU post-addition minus the 5 averaged RFU pre-addition, per condition.

[2] = tested on: A549 cells; assay: Cell proliferation assay (IncuCyte confluence), A549; type: cell-based, human; conditions: for cell confluence (proliferation) / proliferation (confluence): listed as Rasarfin
Protocol: Cell proliferation was measured by a label-free, non-invasive cellular confluence assay using IncuCyte Live-Cell Imaging Systems (Essen Bioscience, Ann Arbor, MI, USA). MDA-MB-231 breast cancer and A549 lung carcinomas cells (1500 cells in 150 μl/well) were seeded overnight on a clear 96-well plate. Twenty-four hours later, the cells were treated with 0.1% DMSO, or different concentrations of Rasarfin (as indicated), or 10 µM of 21.4 or 21.8 for 96 h total. The plate was placed in an XL-3 incubation chamber maintained at 37 °C and the cells were photographed using a ×4 objective, every 3 h for 4 days. Cell confluence was calculated using IncuCyte S3 software (2019A) and cell proliferation was expressed as an increase in the percentage of confluence. Experiments were done in triplicate and repeated three times.

[3] = tested on: ERK1/2 activation by β2AR; assay: Western blot of β2AR-mediated ERK1/2 phosphorylation; type: cell-based, human; conditions: for p-ERK1/2 over ERK1/2, normalized to basal (0 min), b2AR: Comp 21 50 μM, individual experiments
Protocol: HEK293SL cells (10^5 cells per well) were seeded in a poly-L-lysine-coated six-well plate and transiently transfected with 3 μg Flag-AT1R, HA-B2R or HA-β2AR and/or 500 ng Flag-MEK1-WT, Flag-MEK1-DD, Flag-BRAF-WT, Flag-BRAF-V600E, Flag-K-Ras-WT, Flag-K-Ras-G12V, HA-ARF6-WT, or HA-ARF6-T27N. Gαq/11 KO and βarr1/2 KO cells were seeded onto 100 mm dishes at a density of 10^6 cells per dish. Next day, cells were transfected with 3 μg AT1R alone or along with 500 ng of β-arrestin2 using PEI. After 18 h of transfection, cells were detached and re-seeded onto poly-L-lysine coated 12-well plates (~1.5–2 × 10^5cells/well) for subsequent experiments. Forty-eight hours post transfection, in a 37 °C water bath, cells were serum-starved for 30 min, pretreated with DMSO (0.1%) or compound 21/Rasarfin (50 µM or at indicated concentrations) for 30 min, then stimulated or not with the indicated ligand [AngII (1 µM), BK (1 µM), Iso (10 µM) or EGF (100 ng/ml)] at indicated times. Cells were put on ice, washed with PBS and solubilized in 2x laemmli buffer (250 mM Tris–HCl pH 6.8, 2% SDS (w/v), 10% glycerol (v/v), 0.01% bromophenol blue (w/v) and 5% β-mercaptoethanol (v/v)) by heating at 65 °C for 15 min. Lysates were resolved on 10 or 14% SDS-PAGE, transferred to nitrocellulose membranes and immunoblotted for p-ERK1/2, ERK1/2, p-Akt, Akt, HA, Myc, β-actin or FLAG. ImageLab 5.2 software was used to quantify the digital blots as fold of the phosphorylated protein over total protein, which were then normalized as indicated in the figure legends. Uncropped immunoblots are provided in the Source Data file.

[4] = tested on: AT1R; conditions: Barbadin 100 µM; cited from earlier work

T1 sequence (P01116 1-188 isoform P01116-2 Y32A): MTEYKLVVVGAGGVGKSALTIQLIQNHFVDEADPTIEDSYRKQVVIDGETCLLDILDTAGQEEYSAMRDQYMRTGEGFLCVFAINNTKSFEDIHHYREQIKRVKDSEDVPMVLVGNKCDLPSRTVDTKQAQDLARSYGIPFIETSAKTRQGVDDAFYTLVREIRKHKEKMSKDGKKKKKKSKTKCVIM

CC(C)C(=O)N1CCN(c2ccc(NC(=O)c3cc4ccccc4o3)cc2Cl)CC1 [Compound 21]
SOS-mediated mant-GTP binding onto purified K-Ras-Y32A [1]: but not on K-Ras-Y32A | cell confluence (proliferation) ([2]; 0.5μM, 18 hr): 9.332 and 9.3043 and 10.3515 | proliferation (confluence) ([2]; 0.5μM, 18 hr): 24.4895 and 24.566 and 18.9209 | cell confluence (proliferation) ([2]; 0.5μM, 21 hr): 10.4726 and 10.4517 and 11.0087 | proliferation (confluence) ([2]; 0.5μM, 21 hr): 27.1666 and 26.6886 and 21.2647 | cell confluence (proliferation) ([2]; 0.5μM, 24 hr): 10.2389 and 10.6946 and 11.5243 | proliferation (confluence) ([2]; 0.5μM, 24 hr): 32.6256 and 30.048 and 24.569 | cell confluence (proliferation) ([2]; 0.5μM, 27 hr): 10.805 and 11.0634 and 12.4799 | proliferation (confluence) ([2]; 0.5μM, 27 hr): 37.2681 and 34.654 and 21.9145 | cell confluence (proliferation) ([2]; 0.5μM, 30 hr): 11.9152 and 12.485 and 12.9764 | proliferation (confluence) ([2]; 0.5μM, 30 hr): 41.4109 and 39.7044 and 23.7331 | cell confluence (proliferation) ([2]; 0.5μM, 33 hr): 12.3634 and 12.541 and 13.8499 | proliferation (confluence) ([2]; 0.5μM, 33 hr): 46.0502 and 43.4249 and 28.4554 | proliferation (confluence) ([2]; 0.5μM, 36 hr): 51.8492 and 49.6782 and 33.7864 | proliferation (confluence) ([2]; 0.5μM, 39 hr): 59.4007 and 56.0507 | cell confluence (proliferation) ([2]; 1μM, 18 hr): 8.679 and 9.302 and 9.424 | proliferation (confluence) ([2]; 1μM, 18 hr): 19.1081 and 18.3715 and 26.7974 | cell confluence (proliferation) ([2]; 1μM, 21 hr): 9.1 and 10.4023 and 9.667 | proliferation (confluence) ([2]; 1μM, 21 hr): 21.9794 and 20.7173 and 31.1317 | cell confluence (proliferation) ([2]; 1μM, 24 hr): 9.619 and 10.4616 and 10.6323 | proliferation (confluence) ([2]; 1μM, 24 hr): 24.7962 and 23.1147 and 35.367 | cell confluence (proliferation) ([2]; 1μM, 27 hr): 10.2207 and 11.0837 and 11.4063 | proliferation (confluence) ([2]; 1μM, 27 hr): 28.2759 and 21.7311 and 40.5461 | cell confluence (proliferation) ([2]; 1μM, 30 hr): 12.7027 and 12.0976 and 12.1684 | proliferation (confluence) ([2]; 1μM, 30 hr): 31.8721 and 23.9788 and 46.1337 | cell confluence (proliferation) ([2]; 1μM, 33 hr): 12.8101 and 12.4309 and 12.7886 | proliferation (confluence) ([2]; 1μM, 33 hr): 35.7112 and 29.1451 and 51.7711 | cell confluence (proliferation) ([2]; 1μM, 36 hr): 13.5305 | proliferation (confluence) ([2]; 1μM, 36 hr): 39.6717 and 33.6517 and 60.1281 | proliferation (confluence) ([2]; 1μM, 39 hr): 47.4848 and 40.2179 | cell confluence (proliferation) ([2]; 2μM, 18 hr): 9.332 and 13.0386 and 10.4059 | proliferation (confluence) ([2]; 2μM, 18 hr): 23.9116 and 20.6158 and 17.6553 | cell confluence (proliferation) ([2]; 2μM, 21 hr): 10.4726 and 14.2716 and 10.9627 | proliferation (confluence) ([2]; 2μM, 21 hr): 27.3499 and 22.7836 and 20.9361 | cell confluence (proliferation) ([2]; 2μM, 24 hr): 10.2389 and 15.0053 and 11.5919 | proliferation (confluence) ([2]; 2μM, 24 hr): 32.3505 and 25.0274 and 22.3969 | cell confluence (proliferation) ([2]; 2μM, 27 hr): 10.805 and 15.8245 and 11.5779 | proliferation (confluence) ([2]; 2μM, 27 hr): 36.576 and 29.0777 and 20.6023 | cell confluence (proliferation) ([2]; 2μM, 30 hr): 11.9152 and 18.2698 and 12.1995 | proliferation (confluence) ([2]; 2μM, 30 hr): 40.8806 and 32.6797 and 23.0649 | cell confluence (proliferation) ([2]; 2μM, 33 hr): 12.3634 and 18.789 and 13.0531 | proliferation (confluence) ([2]; 2μM, 33 hr): 45.6439 and 35.4748 and 28.9537 | cell confluence (proliferation) ([2]; 2μM, 36 hr): 12.4389 and 19.3831 and 13.6426 | proliferation (confluence) ([2]; 2μM, 36 hr): 52.1825 and 39.835 and 32.0484 | proliferation (confluence) ([2]; 2μM, 39 hr): 61.5258 and 48.4257 and 38.4343 | cell confluence (proliferation) ([2]; 5μM, 18 hr): 10.0859 and 8.906 and 10.6663 | proliferation (confluence) ([2]; 5μM, 18 hr): 17.9959 and 26.9316 and 16.8915 | cell confluence (proliferation) ([2]; 5μM, 21 hr): 10.2266 and 10.3015 and 11.0904 | proliferation (confluence) ([2]; 5μM, 21 hr): 19.5572 and 26.3286 and 18.8493 | cell confluence (proliferation) ([2]; 5μM, 24 hr): 11.4115 and 9.856 and 11.3241 | proliferation (confluence) ([2]; 5μM, 24 hr): 21.409 and 27.1851 and 17.4154 | cell confluence (proliferation) ([2]; 5μM, 27 hr): 11.7245 and 10.4475 and 12.7275 | proliferation (confluence) ([2]; 5μM, 27 hr): 22.045 and 28.0966 and 15.1402 | cell confluence (proliferation) ([2]; 5μM, 30 hr): 12.7699 and 11.1958 and 12.4012 | cell confluence (proliferation) ([2]; 5μM, 33 hr): 12.6309 and 11.193 and 12.7637 | proliferation (confluence) ([2]; 5μM, 33 hr): 25.4457 and 25.9951 and 18.0713 | cell confluence (proliferation) ([2]; 5μM, 36 hr): 13.1014 and 11.8184 and 13.4133 | proliferation (confluence) ([2]; 5μM, 36 hr): 26.9015 and 24.9434 and 20.5372 | proliferation (confluence) ([2]; 5μM, 39 hr): 29.6606 and 26.9243 and 22.5988 | cell confluence (proliferation) ([2]; 10μM, 18 hr): 8.409 and 7.2062 and 9.084 | proliferation (confluence) ([2]; 10μM, 18 hr): 10.5387 and 14.905 and 7.973 | cell confluence (proliferation) ([2]; 10μM, 21 hr): 8.837 and 8.143 and 9.362 | proliferation (confluence) ([2]; 10μM, 21 hr): 10.701 and 14.8102 and 7.904 | cell confluence (proliferation) ([2]; 10μM, 24 hr): 9.479 and 8.1046 and 9.485 | proliferation (confluence) ([2]; 10μM, 24 hr): 11.1918 and 15.0497 and 7.616 | cell confluence (proliferation) ([2]; 10μM, 27 hr): 9.816 and 8.066 and 10.344 | cell confluence (proliferation) ([2]; 10μM, 30 hr): 10.3507 and 8.537 and 10.5983 | cell confluence (proliferation) ([2]; 10μM, 33 hr): 10.1924 and 8.993 and 10.9238 | cell confluence (proliferation) ([2]; 10μM, 36 hr): 10.249 and 9.152 and 11.0645 | A549 cell growth (confluency) ([2]; 5 and 10 µM of Rasarfin): efficiently blocks proliferation; also recorded: efficient A549 cell growth inhibition | MAPK response promoted by β2AR ([3]; 50 μM): blocked MAPK responses | p-ERK1/2 over ERK1/2, normalized to basal (0 min), b2AR ([3]; time 0 min): 1 | p-ERK1/2 over ERK1/2, normalized to basal (0 min), b2AR ([3]; time 2 min): 1.344 and 1.8469 and 1.974 and 1.462 | p-ERK1/2 over ERK1/2, normalized to basal (0 min), b2AR ([3]; time 5 min): 1.8675 and 1.745 and 1.249 and 1.487

Nn1cnc2scc(-c3ccc(Cc4ccccc4)cc3)c2c1=O [Barbadin, reference compound]
receptor internalization [4]: blocked receptor internalization
